We go through one compound from patent US20220273660A1, “MEK INHIBITOR FOR TREATMENT OF STROKE” (EDVINCE AB, priority 2019, published 2022).

Each structure is given as a SMILES string.

Holding throughout (assay type): in vivo
For assay [1], the system named is rat subarachnoid haemorrhage model. In words: Rat SAH model, intrathecal treatment, myograph of basilar arteries. Here is the method:
For contractility measurements, both incubated BAs (ex vivo) and BAs after surgical procedure (in vivo) were cut into segments and mounted on a pair of metal wires (40 μm) in a myograph bath. The arteries from OC were mounted the same way after 48 hours in media. One wire was attached to a micro-meter screw which allows for fine adjustments of the distance between the wires, controlling the vascular tone.
The arterial segments were exposed two or three times with 60 mM K^+, by exchanging the buffer with a 60 mM K^+ buffer solution. To maintain equal osmolarity, a proportional amount of Na^+ had been removed from the buffer. An absolute cut-off was set at 2.0 mN K^+max for inclusion of arterial segments from rats that underwent the surgical procedure. Endothelium function was evaluated with the addition of 5-HT (3.10^−7 M) followed by carbachol (10^−5 M). For arteries from the OC the protocol was as followed: first a cumulative concentration-response curve to sarafotoxin 6C (S6c, 10^−14-10^−7 M), followed by a concentration-response curve to endothelin-1 (ET-1, 10^−14-10^−7 M). At peak ET-1 (10^−7 M), the buffer was changed to a Ca^2+-free buffer containing 10^−7 M ET-1 and nimodipine (L-type of voltage dependent Ca^2+ channel entry blocker, 10^−7 M). […] When vasodilation was investigated arteries was precontracted with U46619 (1.10^−7-3.10^−7 M) or K^+ (41 mM) and cumulative concentration-response curves was performed by adding calcitonin gene-related peptide (CGRP, 10^−12-10^−7 M), carbachol (10^−10-10^−5 M) or SNP (10^−11-10^−4 M).
If there was only one curve above the cut-off, the concentration-response curve to ET-1 was prioritized. Segments with the highest K^+ response were generally allocated to the concentration-response curve to ET-1. […] The Ca^2+ free buffer solution had similar composition as above, but 1.5 mM CaCl2 was exchanged with 0.03 mM EDTA.
Contractile responses of each segment were adjusted according to the length of the artery and are expressed as mN/mm (Nm^−1). […] To compare ET-1 sensitivity, arteries were normalized to the percentage of the individual vessel ET-1max. When the artery reached maximum contraction before the last concentration was added, the curves were constrained to the max contraction. The relative log IC50/log EC50 is the concentration corresponding to a response midway between the estimates of the lower and upper plateaus. The Emax is the maximal contraction in the concentration response curve and ET-1max is the maximal contraction to ET-1. All quantitative data is presented as mean±standard error of the mean (SEM), unless otherwise stated.
Rats were anesthetized and prepared for cisternal infusion of autologous blood, which simulates a SAH. Sham-operated rats went through the same procedure, omitting the intracisternal blood injection of 300 μL. At the end of the procedure, a PinPort (PNP3F22, Instech, US) was placed at the end of the ICP catheter to provide access for intrathecal (i.t.) injectable treatments by a PinPort injector (PNP-3M, Instech, US). 24 hours post-surgery, the rats received s.c. injections of Carprofen (Norodyl, 5 mg/kg) (Scanvet, Denmark) for analgesia.
The intrathecal (i.t.) treatment volumes were estimated for a cerebrospinal fluid (CSF) volume of approximately 90 μL (21) and the total dose was administered as three treatments (4 hours, 10 hours and 24 hours) through the PinPort in the ICP catheter placed in the cisterna magna during the surgical procedure. The first and third injections were given under fixation of the rat. […] Animals were given 2.5 ml isotonic saline s.c. to avoid dehydration, immediately after surgery and in conjunction with the 10 hours and 24 hours treatments.

The test system is the same in assay [2]. In words: Rotating pole test after SAH, intraperitoneal treatment. As to conditions: SAH + i.p. treatment, 48 hours post-SAH. The method, then: Gross sensorimotor function was evaluated using a rotating pole test, including a baseline evaluation on the day before induction of SAH. Briefly, movement across a 10-rpm rotating pole (45 mm diameter, 150 cm length) was evaluated with a cage at the end that contain the rat's own bedding material (“smells like home”). Rat performance was scored according to the following definitions: Low, the animal is unable to cross the pole without falling off; High, the animal can traverse the entire pole without falling off. All animals were trained to traverse the pole before surgery. Pre-SAH and on day 1 and 2 after surgery, each animal was scored twice for left and right rotation respectively, i.e. 4 counts per animal. Animals were graded by personnel blinded to the experimental groups of the animals. Data are shown percentage as % high score count/total score count.
For the intraperitoneal treatment (i.p) the compound was dissolved in 10% cremophor EL (Kolliphor EL) and 10% PEG400 in NaCl, which also served as vehicle. The total dose was administered as two treatments (6 hours and 24 hours). Animals were given 2.5 ml isotonic saline s.c. to avoid dehydration, immediately after surgery and in conjunction with the treatments.

Assay [3] has the same test system. Description: Rotating pole test after SAH, intrathecal treatment. As to conditions: SAH + i.t. treatment. Here is the method:
The intrathecal (i.t.) treatment volumes were estimated for a cerebrospinal fluid (CSF) volume of approximately 90 μL (21) and the total dose was administered as three treatments (4 hours, 10 hours and 24 hours) through the PinPort in the ICP catheter placed in the cisterna magna during the surgical procedure. The first and third injections were given under fixation of the rat. Since the treatment 10 hours post-surgery was administered by a single researcher, the rats were briefly anaesthetised with isoflurane 3.5-4% (maintained at 1.75-2%) in atmospheric air/O2 (70%/30%) using a facemask, to prevent sudden movements of the rat. […]
Gross sensorimotor function was evaluated using a rotating pole test, including a baseline evaluation on the day before induction of SAH. Briefly, movement across a 10-rpm rotating pole (45 mm diameter, 150 cm length) was evaluated with a cage at the end that contain the rat's own bedding material (“smells like home”). Rat performance was scored according to the following definitions: Low, the animal is unable to cross the pole without falling off; High, the animal can traverse the entire pole without falling off. […] Pre-SAH and on day 1 and 2 after surgery, each animal was scored twice for left and right rotation respectively, i.e. 4 counts per animal. […]

Turning to `CC(=O)Nc1cccc(-n2c(=O)n(C3CC3)c(=O)c3c(Nc4ccc(I)cc4F)n(C)c(=O)c(C)c32)c1` [trametinib], the “K+ responses compared to i.t. vehicle” value in assay [1] (SAH + i.t. treatment) is reported as “higher K^+ responses”. In assay [1] (SAH + i.t. treatment), the “contraction at low ET-1 concentrations (10^-12.5-10^-11.0 M), ET-1max normalised, vs SAH+vehicle” value was “significantly reduced”. In assay [1] (SAH + i.t. treatment, Ca2+ curve, 10^-7 M nimodipine), the “nimodipine insensitive ET-1max contraction” value was found to be 1.8±0.5 Nm^−1. Further, the “contractile response of BAs to 60 mM K+” value in assay [1] (SAH + i.t. treatment, all BAs incl. below cut-off) is 5.00±0.29 Nm^−1. Besides, the endothelium function result in assay [1] (animals treated in vivo i.t. after SAH) is reported as “No significant changes”. For the same compound, the “rotating pole Score48 h (% high score count/total score count)” value in assay [2] is 100%; in assay [3] (48 hours post-SAH, 10 rpm), 96%. In addition, the “neurological assessment scores (rotating pole test)” value in assay [3] is “Improved neurological assessment scores”.
